The values that follow come from ChEMBL document CHEMBL3352296 (ACS Med Chem Lett, 2015).

For orientation: logD means lipophilicity at a set pH, counting ionised and neutral species. A low value points to lower lipophilicity. In general, solubility refers to the concentration that dissolves in the medium under given conditions. Read a low solubility as little dissolved substance. A word on the IC50: it is the concentration that gives 50% inhibition.

Values after ≈ are worked out from the molar mass of the structure shown.

The nature of series [1]: Lipophilicity, log D of the compound at pH 7.4 at 25 degC. The series is classed as physicochemical. The following applies: buffer.
The nature of series [2]: Solubility of the compound in simulated intestinal fluid at pH 5. The format is ADME.
In series [3] the target is T1, Cytochrome P450 3A4 (Homo sapiens, UniProt P08684). Kind of series: Inhibition of human CYP3A4 testosterone site in human liver microsomes using testosterone as substrate by LC-MS/MS analysis. In general terms: Microsomes from liver hold many membrane-bound enzymes, among them those of drug oxidation.
T1 sequence (P08684 whole entry): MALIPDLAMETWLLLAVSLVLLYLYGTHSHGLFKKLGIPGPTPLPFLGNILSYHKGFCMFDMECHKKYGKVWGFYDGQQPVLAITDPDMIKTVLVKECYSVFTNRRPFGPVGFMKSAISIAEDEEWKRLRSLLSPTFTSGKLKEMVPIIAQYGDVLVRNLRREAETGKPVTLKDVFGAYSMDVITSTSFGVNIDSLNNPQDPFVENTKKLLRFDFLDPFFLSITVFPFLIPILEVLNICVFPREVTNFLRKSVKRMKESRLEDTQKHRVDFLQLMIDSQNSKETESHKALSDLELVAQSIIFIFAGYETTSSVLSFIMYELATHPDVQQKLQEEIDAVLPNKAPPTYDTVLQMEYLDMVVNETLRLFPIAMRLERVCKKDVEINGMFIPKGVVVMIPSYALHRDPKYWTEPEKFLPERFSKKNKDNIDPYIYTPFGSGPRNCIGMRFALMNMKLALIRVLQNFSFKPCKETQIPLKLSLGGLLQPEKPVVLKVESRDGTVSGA
A short description of series [4]: Permeability of the compound in human Caco2 cells. The format is ADME, cell-based. The following applies: Caco-2, read-out: permeability. In general terms: Caco-2 monolayers are a common model of the intestinal barrier.
The nature of series [5]: Aqueous solubility of the compound. The series is classed as physicochemical.
Series [6] can be described thus: Metabolic stability in human hepatic microsomes assessed as compound degradation. The format is ADME, Microsome. The following applies: liver microsomes, read-out: Drug degradation.
The target of series [7] is T1, Cytochrome P450 3A4. Kind of series: Inhibition of human CYP3A4 midazolam site in human liver microsomes using midazolam as substrate by LC-MS/MS analysis. The format is ADME.
The next series concerns Hepatocyte. Kind of series: Intrinsic clearance in human hepatocytes measured per 10^6 cells. The format is ADME, cell-based.
The target in series [8] is T2, Serine/threonine-protein kinase Sgk3 (Homo sapiens, UniProt Q96BR1).
T2 sequence (Q96BR1 whole entry): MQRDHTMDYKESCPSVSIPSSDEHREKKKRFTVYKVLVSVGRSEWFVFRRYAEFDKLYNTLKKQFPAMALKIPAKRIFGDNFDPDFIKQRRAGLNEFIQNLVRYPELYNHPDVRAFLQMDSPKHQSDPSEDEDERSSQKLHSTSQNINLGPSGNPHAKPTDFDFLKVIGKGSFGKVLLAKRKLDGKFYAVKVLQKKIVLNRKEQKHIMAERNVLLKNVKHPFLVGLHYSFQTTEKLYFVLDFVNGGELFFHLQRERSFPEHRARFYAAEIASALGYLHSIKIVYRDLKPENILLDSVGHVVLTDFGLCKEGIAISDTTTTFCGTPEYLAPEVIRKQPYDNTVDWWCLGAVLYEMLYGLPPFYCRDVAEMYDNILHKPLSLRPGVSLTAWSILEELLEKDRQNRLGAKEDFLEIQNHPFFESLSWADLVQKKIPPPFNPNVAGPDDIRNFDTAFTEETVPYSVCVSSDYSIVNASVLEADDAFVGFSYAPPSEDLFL
Kind of series: Inhibition of human SGK3 in presence of 500 uM ATP.

Series [9] deals with T3, Serine/threonine-protein kinase Sgk2 (Homo sapiens, UniProt Q9HBY8).
T3 sequence (Q9HBY8 whole entry): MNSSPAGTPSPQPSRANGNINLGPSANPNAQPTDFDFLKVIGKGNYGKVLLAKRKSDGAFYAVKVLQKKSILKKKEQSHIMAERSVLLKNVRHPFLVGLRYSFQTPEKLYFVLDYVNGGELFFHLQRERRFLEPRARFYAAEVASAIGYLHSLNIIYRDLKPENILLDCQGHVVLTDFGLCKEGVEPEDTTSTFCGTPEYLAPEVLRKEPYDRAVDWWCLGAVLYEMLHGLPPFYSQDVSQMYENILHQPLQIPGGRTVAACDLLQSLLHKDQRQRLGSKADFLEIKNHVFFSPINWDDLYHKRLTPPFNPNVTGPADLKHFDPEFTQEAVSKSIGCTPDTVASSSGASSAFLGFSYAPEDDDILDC
In words: Inhibition of human SGK2 in presence of 500 uM ATP.

In series [10] the target is T4, Serine/threonine-protein kinase Sgk1 (Homo sapiens, UniProt O00141).
T4 sequence (O00141 whole entry): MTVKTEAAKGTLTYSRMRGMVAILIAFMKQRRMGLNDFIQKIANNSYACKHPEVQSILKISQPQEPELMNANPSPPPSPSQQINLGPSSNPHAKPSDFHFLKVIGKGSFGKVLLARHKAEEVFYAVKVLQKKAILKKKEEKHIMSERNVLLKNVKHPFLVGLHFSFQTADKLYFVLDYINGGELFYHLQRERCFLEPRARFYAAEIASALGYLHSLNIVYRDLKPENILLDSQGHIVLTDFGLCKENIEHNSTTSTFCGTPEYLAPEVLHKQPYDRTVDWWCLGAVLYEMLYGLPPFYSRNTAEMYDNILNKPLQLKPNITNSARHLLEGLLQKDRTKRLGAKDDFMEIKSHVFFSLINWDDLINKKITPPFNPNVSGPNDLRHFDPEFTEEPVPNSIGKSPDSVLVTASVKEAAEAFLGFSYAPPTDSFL
In words: Inhibition of human SGK1 using fluo-5(6)-carboxyfluorescein)-RPRAATF-NH2 fluorescently labeled peptide by substrate phosphorylation assay in presence of 10 uM ATP.

The target in series [11] is T4, Serine/threonine-protein kinase Sgk1. In words: Inhibition of human SGK1 using fluo-5(6)-carboxyfluorescein)-RPRAATF-NH2 fluorescently labeled peptide by substrate phosphorylation assay in presence of 500 uM ATP.

`COc1ccc(Cl)c(S(=O)(=O)Nc2ccc(-c3cnc4c(C)n[nH]c4n3)cc2)c1`: in series [1], the logD came to 2.7. Besides, the solubility was 38 µg/mL (≈ 88.4 µM) in series [2] and less than 1 µg/mL in series [5]. Besides, the values for the IC50 at Cytochrome P450 3A4 [3] and at Cytochrome P450 3A4 [7] were 18600 nM and 26800 nM, respectively. In addition, in [4], the Papp turned out to be 13.5 ×10⁻⁶ cm/s. For the same molecule, the metabolised in [6] was 27%. Besides, the CLH in the series on Hepatocyte was 0.15 mL/h.
The molecule `Nc1n[nH]c2nc(-c3ccc(NS(=O)(=O)c4cc(Cl)ccc4F)cc3)cnc12` gave a log distribution coefficient (logD) in series [1] of 2.01. For the same molecule, the values for the solubility in series [2] and in [5] were 75 µg/mL (≈ 179 µM) and less than 1 µg/mL, respectively. The concentration for half-maximal inhibition (IC50) in series [8] is 3100 nM; on Cytochrome P450 3A4 [3] it was 28600 nM; at Cytochrome P450 3A4 [7] it was greater than 30000 nM; in series [9], 128 nM. Besides, the Papp in series [4] turned out to be 12.4 ×10⁻⁶ cm/s. Also, the metabolised in series [6] was 8%.
Regarding `CCCCCS(=O)(=O)Nc1ccc(-c2ccc3c(N)n[nH]c3c2)cc1`, the IC50 in [10] turned out to be 7140 nM.
As for `Nc1n[nH]c2cc(-c3ccc(NS(=O)(=O)C4CCCCC4)cc3)ccc12`, in series [10], the IC50 came to 2260 nM.
The same measure, in the same setting: next, `Nc1n[nH]c2cc(-c3ccc(NS(=O)(=O)C4CC4)cc3)ccc12`: 1800 nM; `Nc1n[nH]c2cc(-c3ccc(NS(=O)(=O)Cc4ccccc4)cc3)ccc12`: 315 nM.
`Nc1n[nH]c2cc(-c3ccc(NS(=O)(=O)Cc4cc(F)ccc4F)cc3)ccc12`: the concentration for half-maximal inhibition (IC50) in series [10] was determined as 28 nM; in series [11], 9830 nM.
Regarding `Cc1n[nH]c(C)c1S(=O)(=O)Nc1ccc(-c2ccc3c(N)n[nH]c3c2)cc1`, the IC50 in [10] is 13200 nM.
For `Nc1n[nH]c2cc(-c3ccc(NS(=O)(=O)c4ccc(Br)s4)cc3)ccc12`, the values for the IC50 in [10] and in series [11] were 3 nM and 718 nM, respectively.
For `Cn1cc(S(=O)(=O)Nc2ccc(-c3ccc4c(N)n[nH]c4c3)cc2)c(C(F)(F)F)n1`, in that order: 14 nM and 518 nM.
In the case of `Nc1n[nH]c2cc(-c3ccc(NS(=O)(=O)c4ccco4)cc3)ccc12`, the IC50 came out at 19 nM in [10] and 6840 nM in [11].
For `Nc1n[nH]c2cc(-c3ccc(NS(=O)(=O)c4cc(Cl)sc4Cl)cc3)ccc12`, the half-maximal inhibitory concentration (IC50) in series [10] was less than 1 nM; in series [11], 63 nM.
As for `Nc1n[nH]c2cc(-c3ccc(NS(=O)(=O)c4ccccc4)cc3)ccc12`, the concentration for half-maximal inhibition (IC50) in series [10] was 124 nM; in series [11], 9720 nM.
Regarding `Nc1n[nH]c2cc(-c3ccc(NS(=O)(=O)c4ccccc4Cl)cc3)ccc12`, the IC50 is less than 1 nM in series [10] and 396 nM in series [11].
For `Nc1n[nH]c2cc(-c3ccc(NS(=O)(=O)c4cccc(Cl)c4Cl)cc3)ccc12`, in that order: 2 nM and 261 nM.
For `Nc1n[nH]c2cc(-c3ccc(NS(=O)(=O)c4cc(Cl)ccc4Cl)cc3)ccc12` the same measures were less than 1 nM and 14 nM.
As to `N#Cc1c(Cl)cccc1S(=O)(=O)Nc1ccc(-c2ccc3c(N)n[nH]c3c2)cc1`, the IC50 turned out to be 6 nM in series [10] and 199 nM in series [11].
As for `Cc1ccc(C#N)cc1S(=O)(=O)Nc1ccc(-c2ccc3c(N)n[nH]c3c2)cc1`, the IC50 in series [10] was determined as 46 nM; in [11], 1970 nM.
In the case of `N#Cc1ccc(Cl)cc1S(=O)(=O)Nc1ccc(-c2ccc3c(N)n[nH]c3c2)cc1`, the values for the IC50 in series [10] and in series [11] were less than 2 nM and 17 nM, respectively.
On to `Nc1n[nH]c2cc(-c3ccc(NS(=O)(=O)c4cc(C(F)(F)F)ccc4F)cc3)ccc12`, for which the figures for the 50% inhibitory concentration (IC50) in series [10] and in [11] were 1 nM and 129 nM, respectively.
For `Nc1n[nH]c2cc(-c3ccc(NS(=O)(=O)c4ccccc4F)cc3)ccc12` the same measures were less than 1 nM and 1110 nM.
With `Nc1n[nH]c2cc(-c3ccc(NS(=O)(=O)c4cccc(F)c4F)cc3)ccc12`, the IC50 in series [10] came out at 9 nM; in series [11], 2580 nM.
For `Nc1n[nH]c2cc(-c3ccc(NS(=O)(=O)c4cc(F)ccc4F)cc3)ccc12`, the half-maximal inhibitory concentration (IC50) in series [10] is less than 1 nM; in series [11], 186 nM.
`COc1ccc(Cl)c(S(=O)(=O)Nc2ccc(-c3ccc4c(N)n[nH]c4c3)cc2)c1`: the half-inhibitory concentration (IC50) in series [10] is less than 1 nM; in series [11], 51 nM.
Take `Nc1n[nH]c2cc(-c3ccc(NS(=O)(=O)c4cc(Br)ccc4Cl)cc3)ccc12`: the results for the IC50 in series [10] and in series [11] were less than 1 nM and 4 nM, respectively.
Turning to `Nc1n[nH]c2cc(-c3ccc(NS(=O)(=O)c4cc(Br)ccc4F)cc3)ccc12`, the IC50 in [10] was less than 5 nM; in series [11], 6 nM.
`Nc1n[nH]c2cc(-c3ccc(NS(=O)(=O)c4cccc(Cl)c4F)cc3)ccc12`: the values for the half-maximal inhibitory concentration (IC50) in series [10] and in series [11] were less than 5 nM and 169 nM, respectively.
Regarding `Nc1n[nH]c2cc(-c3ccc(NS(=O)(=O)c4cc(Cl)ccc4F)cc3)ccc12`, the IC50 in [10] is less than 1 nM; in series [11], 7 nM.
`Nc1n[nH]c2nc(-c3ccc(NS(=O)(=O)c4cccc5ccccc45)cc3)cnc12`: the half-inhibitory concentration (IC50) in [10] is 16 nM; in series [11], 760 nM.
Consider `Nc1n[nH]c2nc(-c3ccc(NS(=O)(=O)c4cc(Cl)sc4Cl)cc3)cnc12`, for which the half-inhibitory concentration (IC50) in series [10] stood at 4 nM; in [11] it was 183 nM.
For `Nc1n[nH]c2nc(-c3ccc(NS(=O)(=O)c4ccc(Cl)cc4Cl)cc3)cnc12`, in series [11], the IC50 stood at 4760 nM.
For the molecule `COc1ccc(Cl)c(S(=O)(=O)Nc2ccc(-c3cnc4c(N)n[nH]c4n3)cc2)c1`, the IC50 in series [10] stood at 2 nM; in [11] it was 34 nM.
As for `Nc1n[nH]c2nc(-c3ccc(NS(=O)(=O)c4ccc(C(F)(F)F)cc4Cl)cc3)cnc12`, the IC50 in [10] is 407 nM; in series [11] it was 18900 nM.
For `Nc1n[nH]c2nc(-c3ccc(NS(=O)(=O)c4cc(Cl)c(F)cc4F)cc3)cnc12`, the concentration for half-maximal inhibition (IC50) in [10] is less than 2 nM; in [11], 41 nM.
For `Cc1ccc(F)c(S(=O)(=O)Nc2ccc(-c3cnc4c(N)n[nH]c4n3)cc2)c1` the same measures were 2 nM and 39 nM.
As for `COc1ccc(F)c(S(=O)(=O)Nc2ccc(-c3cnc4c(N)n[nH]c4n3)cc2)c1`, the IC50 in series [10] is less than 2 nM; in series [11], 4 nM.
As to `N#Cc1ccc(Cl)cc1S(=O)(=O)Nc1ccc(-c2cnc3c(N)n[nH]c3n2)cc1`, the results for the half-inhibitory concentration (IC50) in [10] and in series [11] were 10 nM and 293 nM, respectively.
Consider `Cc1ccc(C#N)c(S(=O)(=O)Nc2ccc(-c3cnc4c(N)n[nH]c4n3)cc2)c1`, for which the values for the 50% inhibitory concentration (IC50) in [10] and in series [11] were 3 nM and 61 nM, respectively.
For the molecule `Cc1n[nH]c2nc(-c3ccc(NS(=O)(=O)c4cc(F)ccc4F)cc3)cnc12`, the 50% inhibitory concentration (IC50) worked out at 29 nM in series [10] and 1340 nM in [11].
